{"source": "patent US9724380B2", "about": "“Method and compositions for synchronizing time of insemination in gilts” (JBS UNITED ANIMAL HEALTH II LLC, priority 2012, dated 2017)", "key": {"[1]": {"system": "serum LH", "test": "Example 5: serum LH surge after triptorelin gel (jugular catheter subpopulation)", "format": "in vivo, swine", "description": "(§1) All gilts were individually fed MATRIX® as a top-dress for 14 or 15 days at the recommended rate of 15 mg/gilt/day. Gilts were withdrawn from MATRIX® feeding (last top-dress in the morning on Day 0) and allocated to each of the following treatments. Controls were vehicle gel treated (vehicle gel without triptorelin) at 120 (+/−2) hours following MATRIX® withdrawal (last top dress). The other gilts were given 100, 200 or 400 mcg triptorelin as the acetate in a methylcellulose gel formulation 120 (+/−2) hours following MATRIX® withdrawal. The four treatments were: • 1. Vehicle gel (VG): vehicle gel without triptorelin at 120 (+/−2) hours after MATRIX® withdrawal. • 2. TG 100: 100 mcg (2 mL 50 mcg/mL) triptorelin gel at 120 (+/−2) hours after MATRIX® withdrawal. • 3. TG 200: 200 mcg (2 mL 100 mcg/mL) triptorelin gel at 120 (+/−2) hours after MATRIX® withdrawal. • 4. TG 400: 400 mcg (2 mL 200 mcg/mL) triptorelin gel at 120 (+/−2) hours after MATRIX® withdrawal.\nA catheter was inserted non-surgically into the jugular vein (Kraeling et al. 1982) of a subpopulation of gilts in each treatment group (vehicle gel, n=8; 100 mcg triptorelin, n=6; 200 mcg triptorelin, n=7 and 400 mcg triptorelin, n=6). Ten mL blood samples were collected every 15 minutes for one hour prior to treatment, immediately following treatment (0) and at 0.5, 1, 2, 4, 6, 12, 18, 24, 36 and 48 hours after treatment. Blood samples were maintained at 4° C. until centrifuged at 800×g for 15 minutes within 12 hours of collection. The resulting serum was stored frozen until assayed for LH using validated procedures for pig serum (Kesner et al., 1987 and Kraeling et al., 1982). Onset, duration, and magnitude of the LH surge were analyzed. The LH data were analyzed with the General Linear Models procedure of SAS. Differences between treatments were tested on least squares means estimates using the T test at P<0.05. Onset of the LH surge is when serum LH concentration is greater than or equal to two standard deviations of the mean of the pre-treatment serum LH concentrations. Duration of the LH surge is the period between onset and when serum LH concentration is again less than or equal to two standard deviations of the mean of the pre-treatment serum LH concentrations. Magnitude of the LH surge is the maximum serum LH concentration reached during the LH surge.\nA single 2 mL dose of triptorelin gel or vehicle gel was deposited within approximately 1-2 cm posterior to the cervix with a catheter similar to those used for artificial insemination. The dose was delivered using a standard multi-dose applicator attached to the catheter. A new disposable sheath, which surrounds the catheter, was used for each gilt."}, "[2]": {"system": "gilts", "test": "Example 5: estrus observation after triptorelin gel dose groups", "format": "in vivo, swine", "conditions": "raw average, PTK 2-07", "description": "as §1\nTriptorelin (pGlu-His-Trp-Ser-Tyr-D-Trp-Leu-Arg-Pro-Gly-NH2) was supplied in the acetate form, from Bachem, Torrance, Calif. (Item H-4075 CGMP grade). Triptorelin gel (100-400 mcg/2 mL dose) was formulated by Argenta (Auckland, NZ) in a gel composed of Methocel Premium A4000 (Dow Chemical), citrate buffer (pH 5.5), NaCl, methionine, and methyl and propyl parabens. Fifty-four milliliters of triptorelin gel (100 mcg triptorelin acetate/mL) was packaged in Amber Borosilicate Glass Serum Vials (610206-50) with a Gray Butyl Pharmaceutical Serum Vial Stopper (73828A-SS) with a Standard Aluminum Seal (SAS20NAT). […] MATRIX® was supplied as the US commercially available form.\nFor post-treatment estrus detection, gilts were housed in individual pens. Boars were housed in separate rooms, and/or at least 12 m away and downwind. To elicit signs of estrus, a mature boar was walked slowly in the alley in front of the gilts' crates, exposing each test gilt to visual, auditory and olfactory signals from the boar for up to 5 minutes. In keeping with standard practice at commercial farms, while the boar was near the front of the gilt's crate, estrus was tested by an experienced person applying back pressure to the midsection of the gilt combined with side rubbing. Estrus was confirmed when a gilt stood rigidly to the back pressure, with no vocalization and with some indication of an ear reflex. Gilts were not exposed to boars during the first three days after withdrawal of MATRIX® (Day 0 to Day 2). Estrus detection was performed daily on all gilts from Day 3 to Day 7.\nA single 2 mL dose of triptorelin gel or vehicle gel was deposited within approximately 1-2 cm posterior to the cervix with a catheter similar to those used for artificial insemination. The dose was delivered using a standard multi-dose applicator attached to the catheter. […]"}, "[3]": {"conditions": "200 mcg T, LS mean (1 gilt with surge)"}, "[4]": {"conditions": "200 mcg T, relative to time of triptorelin gel treatment, LS mean (1 gilt with surge)"}}}
{"smiles": "CC(C)C[C@H](NC(=O)[C@@H](Cc1c[nH]c2ccccc12)NC(=O)[C@H](Cc1ccc(O)cc1)NC(=O)[C@H](CO)NC(=O)[C@H](Cc1c[nH]c2ccccc12)NC(=O)[C@H](Cc1c[nH]cn1)NC(=O)[C@@H]1CCC(=O)N1)C(=O)N[C@@H](CCCNC(=N)N)C(=O)N1CCC[C@H]1C(=O)NCC(N)=O", "note": "[T, pGlu-His-Trp-Ser-Tyr-D-Trp-Leu-Arg-Pro-Gly-NH2]", "values": [{"measurement": "Gilts, which displayed a LH surge (number)", "setting": "[1]; 100 mcg T (n = 6)", "value": 4}, {"measurement": "Magnitude of LH surge (maximum serum LH concentration)", "setting": "[1]; 100 mcg T, LS mean ± SE", "value": "3.94 ± 1.22"}, {"measurement": "Onset of LH surge", "setting": "[1]; 100 mcg T, relative to time of triptorelin gel treatment, LS mean ± SE", "value": "4 ± 3"}, {"measurement": "Gilts, which displayed a LH surge (number)", "setting": "[1]; 200 mcg T (n = 7)", "value": 1}, {"measurement": "Duration of LH surge", "setting": "[1]; [3]", "value": 18}, {"measurement": "Magnitude of LH surge (maximum serum LH concentration)", "setting": "[1]; [3]", "value": 8.98}, {"measurement": "Onset of LH surge", "setting": "[1]; [4]", "value": 0.5}, {"measurement": "Time of maximum LH conc.", "setting": "[1]; [4]", "value": 4}, {"measurement": "Gilts, which displayed a LH surge (number)", "setting": "[1]; 400 mcg T (n = 6)", "value": 5}, {"measurement": "Magnitude of LH surge (maximum serum LH concentration)", "setting": "[1]; 400 mcg T, LS mean ± SE", "value": "11.65 ± 12.35"}, {"measurement": "Onset of LH surge", "setting": "[1]; 400 mcg T, relative to time of triptorelin gel treatment, LS mean ± SE", "value": "4 ± 4"}, {"measurement": "Estrous Expression (%)", "setting": "[2]; 100 mcg T at 120 h post-MATRIX", "value": 75.0, "unit": "%"}, {"measurement": "Estrous Expression (%)", "setting": "[2]; 200 mcg T at 120 h post-MATRIX", "value": 81.0, "unit": "%"}]}
